Laboratory results: the OligoGym collection
Bases are written 5' to 3'; sugars and linkages follow in the same order, as letters with counts (s phosphorothioate, o phosphodiester; PS: all linkages phosphorothioate). The collection does not say whether C is 5-methylated. l = locked nucleic acid (LNA); d = 2'-deoxy (DNA)

Molecular target: Tau
Assay: rat primary cortical neurons, FLIPR, 25 uM ASO

Going from “TCCACAAACCAACTCAACA (sugars l2 d13 l4, PS)” to “TCCACAAACCAACTCAACAT (sugars l2 d15 l3, PS)”, the calcium oscillation score falls from 102 % of control to 75.2 % of control.

First: TCCACCCTTACACATA (sugars l3 d11 l2, PS)
Second: TCCACCCTTACACATAG (sugars l3 d12 l2, PS)
The calcium oscillation score of the first is higher: 48.8 % of control for the first, 40.4 % of control for the second.

Compared with “TCCACTTAGACACTCTT (sugars l2 d11 l4, PS)”, “TCCACTTAGACACTCTTT (sugars l3 d13 l2, PS)” is lower in calcium oscillation score: 50 % of control for the first, 37.5 % of control for the second.

First: TCCAGCCATATTTCAACTCT (sugars l3 d14 l3, PS)
Second: TCCAGCTACTTACCCAA (sugars l2 d12 l3, PS)
The calcium oscillation score of the first is lower: 45.2 % of control for the first, 89 % of control for the second.

Compared with “TCCAGGGACCCAATCTTCGA (sugars l3 d14 l3, PS)”, TCCAGTCCCGTCTTTG (sugars l3 d10 l3, PS) is higher in calcium oscillation score: 0 % of control for the first, 11.5 % of control for the second.

Going from TCCATCCTAAGTCAAC (sugars l3 d9 l4, PS) to TCCATTAATTTAGCCA (sugars l4 d10 l2, PS), the calcium oscillation score falls from 65.3 % of control to 54.1 % of control.

Compared with TCCATTAGTCTCTTCA (sugars l3 d11 l2, PS), “TCCATTCCCTCCAGAACCAT (sugars l3 d14 l3, PS)” is lower in calcium oscillation score: 65.1 % of control for the first, 61.9 % of control for the second.

First: TCCATTTTCACTGTTCA (sugars l3 d12 l2, PS)
Second: TCCATTTTCTGACTCTA (sugars l3 d12 l2, PS)
The calcium oscillation score of the first is higher: 87.7 % of control for the first, 40.4 % of control for the second.

Going from “TCCCAAATTCCTCATAATCC (sugars l2 d16 l2, PS)” to “TCCCAACTCTTTGAACAC (sugars l3 d13 l2, PS)”, the calcium oscillation score rises from 64.5 % of control to 83.5 % of control.

Going from “TCCCACCATCCACGCTC (sugars l2 d13 l2, PS)” to TCCCAGCGTGATCT (sugars l3 d8 l3, PS), the calcium oscillation score falls from 64.7 % of control to 3.83 % of control.

Going from “TCCCAGCGTGATCTTCCATC (sugars l4 d11 l5, PS)” to “TCCCAGCGTGATCTTCCATC (sugars l5 d11 l4, PS)”, the calcium oscillation score rises from 55.4 % of control to 85.2 % of control.

Compared with “TCCCAGCGTGATCTTCCATC (sugars ldlllddddddddddlldll, PS)”, “TCCCAGCGTGATCTTCCATC (sugars lldllddddddddddlldll, PS)” is higher in calcium oscillation score: 74.5 % of control for the first, 106 % of control for the second.

First: TCCCATCACTAGCACTA (sugars l2 d13 l2, PS)
Second: TCCCCACCCAAACTCCA (sugars l2 d13 l2, PS)
The calcium oscillation score of the first is lower: 32.8 % of control for the first, 80.8 % of control for the second.

Going from “TCCCCACCCAAACTCCAA (sugars l2 d14 l2, PS)” to “TCCCCATTTATCCTTCA (sugars l2 d13 l2, PS)”, the calcium oscillation score falls from 76.5 % of control to 65.9 % of control.

First: TCCCCATTTATCCTTCAT (sugars l2 d13 l3, PS)
Second: TCCCCCAAAATATCTCA (sugars l2 d12 l3, PS)
The calcium oscillation score of the first is lower: 77.3 % of control for the first, 87.1 % of control for the second.

Going from “TCCCCCAAAATATCTCAA (sugars l3 d13 l2, PS)” to “TCCCGTCTTTGCTTTTACTG (sugars l3 d14 l3, PS)”, the calcium oscillation score falls from 53.9 % of control to 3.7 % of control.

Going from “TCCCTAATCCCCAAAGA (sugars l2 d13 l2, PS)” to “TCCCTTAACAATATGCT (sugars l2 d11 l4, PS)”, the calcium oscillation score rises from 53.9 % of control to 75.1 % of control.

First: TCCCTTAATTTCAC (sugars l3 d8 l3, PS)
Second: TCCCTTAATTTCACC (sugars l3 d9 l3, PS)
The calcium oscillation score of the first is higher: 133 % of control for the first, 80.5 % of control for the second.

Compared with TCCCTTTCAAACCAGC (sugars l2 d10 l4, PS), “TCCTAAGTCAACCACAC (sugars l4 d11 l2, PS)” is lower in calcium oscillation score: 92.3 % of control for the first, 56.6 % of control for the second.

Going from “TCCTAAGTCAACCACACC (sugars l2 d14 l2, PS)” to TCCTAATCCTGTGC (sugars l3 d8 l3, PS), the calcium oscillation score falls from 69 % of control to 65 % of control.

Going from TCCTAATCCTGTGCT (sugars l3 d9 l3, PS) to TCCTAATCCTGTGCTT (sugars l3 d10 l3, PS), the calcium oscillation score falls from 140 % of control to 23 % of control.

Going from “TCCTAATTCCCAAATTCCT (sugars l2 d15 l2, PS)” to “TCCTAATTCCCAAATTCCTC (sugars l2 d15 l3, PS)”, the calcium oscillation score rises from 57.4 % of control to 76.6 % of control.

“TCCTCACTTTACACATTA (sugars l3 d13 l2, PS)” and “TCCTCACTTTACACATTAA (sugars l4 d13 l2, PS)” are the same in calcium oscillation score: 62.5 % of control for the first, 62.5 % of control for the second.

Compared with “TCCTCACTTTACACATTAAA (sugars l4 d14 l2, PS)”, TCCTCCATTGTAACTA (sugars l4 d10 l2, PS) is higher in calcium oscillation score: 70.3 % of control for the first, 85.3 % of control for the second.

Compared with “TCCTCCATTGTAACTAC (sugars l2 d11 l4, PS)”, “TCCTCCATTGTAACTACT (sugars l2 d14 l2, PS)” is lower in calcium oscillation score: 63.9 % of control for the first, 59.4 % of control for the second.

Going from “TCCTCTCCTTTAAGAAA (sugars l3 d12 l2, PS)” to “TCCTGGCCATCTTATGCTGA (sugars l3 d14 l3, PS)”, the calcium oscillation score falls from 79.1 % of control to 31.2 % of control.

Compared with TCCTGGTTTATGATGG (sugars l3 d10 l3, PS), “TCCTGGTTTATGATGGATGT (sugars l3 d14 l3, PS)” is higher in calcium oscillation score: 2.3 % of control for the first, 5.81 % of control for the second.
